Series [1] deals with T1, Fascin (Homo sapiens, UniProt Q16658).
For series [2], the target named is T1, Fascin. This is another data set of the same source.
Series [3] has as its target T1, Fascin. Briefly: Binding affinity to fascin 1 (unknown origin) by SPR assay. For orientation: Surface plasmon resonance follows binding to a sensor surface in real time, without labels.
The nature of series [4]: Efflux ratio of apparent permeability of the compound in human Caco2 cells. In kind it is ADME, cell-based. The following applies: caco-2.
The target in series [5] is T1, Fascin. This is another data set of the same source.
The next series addresses Cytochrome P450 2D6 (Homo sapiens, UniProt P10635). Briefly: Inhibition of CYP2D6 (unknown origin). In kind it is ADME.
The target of series [6] is Voltage-gated inwardly rectifying potassium channel KCNH2 (Homo sapiens, UniProt Q12809). The series can be described thus: Inhibition of human ERG.
Sequence of Voltage-gated inwardly rectifying potassium channel KCNH2 (Q12809 whole entry): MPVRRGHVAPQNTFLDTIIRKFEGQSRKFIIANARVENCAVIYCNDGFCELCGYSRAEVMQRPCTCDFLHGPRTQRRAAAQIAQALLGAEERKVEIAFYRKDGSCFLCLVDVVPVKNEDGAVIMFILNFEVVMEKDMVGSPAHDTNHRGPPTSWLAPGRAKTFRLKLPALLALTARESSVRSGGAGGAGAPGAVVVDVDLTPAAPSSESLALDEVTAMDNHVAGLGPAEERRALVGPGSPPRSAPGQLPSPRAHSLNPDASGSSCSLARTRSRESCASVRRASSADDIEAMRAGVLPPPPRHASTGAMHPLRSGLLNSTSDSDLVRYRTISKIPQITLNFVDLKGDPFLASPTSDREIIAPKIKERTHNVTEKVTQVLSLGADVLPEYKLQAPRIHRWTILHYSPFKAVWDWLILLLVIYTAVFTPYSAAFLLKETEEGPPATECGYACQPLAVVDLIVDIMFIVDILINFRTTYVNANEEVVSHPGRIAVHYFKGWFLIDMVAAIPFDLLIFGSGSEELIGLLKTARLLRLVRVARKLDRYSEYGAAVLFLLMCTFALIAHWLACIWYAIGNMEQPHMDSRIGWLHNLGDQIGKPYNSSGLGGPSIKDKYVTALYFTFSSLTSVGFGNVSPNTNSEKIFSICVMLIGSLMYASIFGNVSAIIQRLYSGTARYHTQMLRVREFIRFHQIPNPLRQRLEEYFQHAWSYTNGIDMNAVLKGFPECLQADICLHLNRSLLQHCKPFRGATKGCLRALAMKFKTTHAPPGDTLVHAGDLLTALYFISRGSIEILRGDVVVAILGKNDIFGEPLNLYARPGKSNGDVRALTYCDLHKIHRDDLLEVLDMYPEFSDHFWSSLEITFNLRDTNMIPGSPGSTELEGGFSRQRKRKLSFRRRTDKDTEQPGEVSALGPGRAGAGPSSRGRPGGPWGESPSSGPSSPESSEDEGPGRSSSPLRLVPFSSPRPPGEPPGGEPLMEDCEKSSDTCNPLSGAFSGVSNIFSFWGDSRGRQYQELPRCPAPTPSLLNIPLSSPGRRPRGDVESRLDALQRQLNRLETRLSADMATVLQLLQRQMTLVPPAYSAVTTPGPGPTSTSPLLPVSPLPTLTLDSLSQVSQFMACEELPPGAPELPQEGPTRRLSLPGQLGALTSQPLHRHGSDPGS
The nature of series [7]: Intrinsic clearance in human microsomes assessed per mg protein. In kind it is ADME, Microsome.
For another series, the target named is Cytochrome P450 2C19 (Homo sapiens, UniProt P33261). Briefly: Inhibition of CYP2C19 (unknown origin). The series is classed as ADME.
Sequence of Cytochrome P450 2C19 (P33261 whole entry): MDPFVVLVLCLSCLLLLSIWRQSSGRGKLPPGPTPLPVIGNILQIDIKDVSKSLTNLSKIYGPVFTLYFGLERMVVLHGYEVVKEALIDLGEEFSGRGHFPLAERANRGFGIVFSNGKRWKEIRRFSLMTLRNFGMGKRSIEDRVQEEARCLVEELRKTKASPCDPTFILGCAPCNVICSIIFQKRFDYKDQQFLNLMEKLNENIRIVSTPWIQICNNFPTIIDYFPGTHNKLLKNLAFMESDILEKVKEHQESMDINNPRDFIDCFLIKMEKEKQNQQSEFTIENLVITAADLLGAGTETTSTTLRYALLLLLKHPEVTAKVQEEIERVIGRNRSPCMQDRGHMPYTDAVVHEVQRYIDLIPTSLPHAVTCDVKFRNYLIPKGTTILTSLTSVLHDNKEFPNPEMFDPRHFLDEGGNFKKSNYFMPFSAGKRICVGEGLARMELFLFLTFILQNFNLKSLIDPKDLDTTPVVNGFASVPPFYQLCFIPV
Series [8] in a line: Solubility of compound by turbidimetric method. The series is classed as physicochemical.
Series [9] is described as follows: Lipophilicity, log D of the compound at pH 7.4. The series is classed as physicochemical. The following applies: buffer.
The target of another series is Cytochrome P450 2C9 (Homo sapiens, UniProt P11712). Briefly: Inhibition of CYP2C9 (unknown origin). In kind it is ADME.
Sequence of Cytochrome P450 2C9 (P11712 whole entry): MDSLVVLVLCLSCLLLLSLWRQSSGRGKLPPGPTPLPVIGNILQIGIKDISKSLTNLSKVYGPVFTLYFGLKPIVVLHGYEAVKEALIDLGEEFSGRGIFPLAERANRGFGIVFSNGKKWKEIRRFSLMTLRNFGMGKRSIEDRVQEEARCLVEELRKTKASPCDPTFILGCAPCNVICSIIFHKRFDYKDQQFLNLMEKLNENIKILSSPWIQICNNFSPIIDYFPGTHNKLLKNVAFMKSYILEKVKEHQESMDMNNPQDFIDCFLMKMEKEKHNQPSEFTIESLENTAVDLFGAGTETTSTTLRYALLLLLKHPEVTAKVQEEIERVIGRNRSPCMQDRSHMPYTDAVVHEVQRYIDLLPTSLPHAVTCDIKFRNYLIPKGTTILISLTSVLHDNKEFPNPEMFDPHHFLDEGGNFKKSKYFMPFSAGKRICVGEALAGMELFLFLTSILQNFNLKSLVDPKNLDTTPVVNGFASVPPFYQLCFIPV
Series [10] can be described thus: Apparent permeability of the compound across apical side to basolateral side in human Caco2 cells. In kind it is ADME, cell-based. Particulars: caco-2. For orientation: Caco-2 cells form a polarised layer with tight junctions and transporters.
The next series has as its target Cytochrome P450 3A4 (Homo sapiens, UniProt P08684). The series can be described thus: Inhibition of CYP3A4 (unknown origin). The series is classed as ADME.
A short description of series [11]: Intrinsic clearance in mouse microsomes assessed per mg protein. The series is classed as ADME, Microsome.

The results in this text go back to ChEMBL document CHEMBL4400540, “Structure-based design, synthesis and biological evaluation of a novel series of isoquinolone and pyrazolo[4,3-c]pyridine inhibitors of fascin 1 as potential anti-metastatic agents” (Bioorg Med Chem Lett, 2019).

In brackets after ≈: the same amount, converted by molar mass. Some results are limits rather than exact numbers.

Sequence of Cytochrome P450 3A4 (P08684 whole entry): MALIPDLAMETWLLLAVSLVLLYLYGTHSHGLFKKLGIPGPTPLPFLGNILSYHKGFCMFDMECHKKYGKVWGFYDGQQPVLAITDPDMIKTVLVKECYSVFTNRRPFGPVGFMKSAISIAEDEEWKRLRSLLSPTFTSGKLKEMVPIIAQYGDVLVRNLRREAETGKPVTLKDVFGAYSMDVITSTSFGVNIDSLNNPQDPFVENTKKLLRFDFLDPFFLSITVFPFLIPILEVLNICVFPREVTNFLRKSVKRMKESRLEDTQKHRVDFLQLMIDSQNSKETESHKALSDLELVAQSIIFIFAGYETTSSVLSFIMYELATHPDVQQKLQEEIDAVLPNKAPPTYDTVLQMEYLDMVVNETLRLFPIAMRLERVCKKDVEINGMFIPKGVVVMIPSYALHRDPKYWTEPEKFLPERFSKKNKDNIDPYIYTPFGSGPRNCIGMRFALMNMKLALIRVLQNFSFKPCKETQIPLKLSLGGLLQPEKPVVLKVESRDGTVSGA
Sequence of Cytochrome P450 2D6 (P10635 whole entry): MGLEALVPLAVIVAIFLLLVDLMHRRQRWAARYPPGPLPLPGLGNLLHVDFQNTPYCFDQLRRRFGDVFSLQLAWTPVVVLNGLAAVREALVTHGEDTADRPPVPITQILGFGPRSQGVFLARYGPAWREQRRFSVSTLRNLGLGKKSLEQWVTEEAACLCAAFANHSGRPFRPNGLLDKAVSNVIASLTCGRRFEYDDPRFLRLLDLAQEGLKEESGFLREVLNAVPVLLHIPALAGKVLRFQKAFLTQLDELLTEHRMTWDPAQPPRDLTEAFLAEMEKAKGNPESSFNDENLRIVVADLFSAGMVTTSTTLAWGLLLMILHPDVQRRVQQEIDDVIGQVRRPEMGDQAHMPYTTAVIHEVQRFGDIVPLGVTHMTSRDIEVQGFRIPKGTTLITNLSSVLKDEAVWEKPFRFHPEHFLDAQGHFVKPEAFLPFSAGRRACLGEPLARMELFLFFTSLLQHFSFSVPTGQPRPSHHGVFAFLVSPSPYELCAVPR

As a reminder, the Kd is the concentration at which binding is half-saturated. `CN(c1cc2c(C(=O)Nc3cnn(C)c3)cn(Cc3ccc(Cl)c(Cl)c3)c(=O)c2cn1)S(C)(=O)=O`: binding at Fascin [1] was put at a Kd of 2 µM.
`Cn1cc(NC(=O)c2cn(Cc3ccc(Cl)c(Cl)c3)c(=O)c3ncccc23)cn1`: the dissociation constant Kd on Fascin [1] is above 100 µM.
The compound `O=c1c2cn[nH]c2ncn1Cc1ccc(Cl)c(Cl)c1` showed a Kd on Fascin [1] above 500 µM.
As usually defined, the IC50 is the concentration that gives 50% inhibition. Low readings indicate inhibition by little substance, high ones a need for much substance. `Cn1cc(NC(=O)c2cn(Cc3ccc(Cl)c(Cl)c3)c(=O)c3cnn(C4CCS(=O)(=O)C4)c23)cn1` (configuration not stated) displayed a Kd at Fascin [1] of 0.6 µM. At Fascin [2], this compound showed an IC50 of 0.63 µM.
In the same order, the values of `Nc1cc(C(=O)Nc2cnn(C3CCNC3)c2)cn(Cc2ccc(Cl)c(Cl)c2)c1=O` (configuration not stated) are 21 µM and above 100 µM.
For the compound `Cn1cc(NC(=O)c2cn(Cc3ccc(Cl)c(Cl)c3)c(=O)c3cnc(N4CCNCC4)cc23)cn1`, the Kd on Fascin [1] is 0.58 µM. The compound also came in with an IC50 against Fascin [2] of 0.63 µM.
`CC(=O)N(C)c1ccc(Cl)cc1Cl` gave a Kd on Fascin [3] of 92 µM.
Regarding `O=C(Nc1cnn(C2CCNC2)c1)c1ccc(=O)n(Cc2ccc(Cl)c(Cl)c2)c1` (configuration not stated), on Fascin [1], the Kd was above 100 µM.
On the same count and under the same terms, the value for `Cn1cc(NC(=O)c2cn(Cc3ccc(Cl)c(Cl)c3)c(=O)c3cccnc23)cn1` was above 100 µM.
`Cn1cc(NC(=O)c2cn(Cc3cccc(Cl)c3)c(=O)c3ccccc23)cn1` yielded a Kd at Fascin [1] of 7.6 µM. Also, it took 11.4 µM to reach half-maximal inhibition on Fascin [2] (IC50).
In the same order, the values of `O=C(Nc1ccncc1)c1cn(Cc2ccc(Cl)c(Cl)c2)c(=O)c2cnn(C3CCS(=O)(=O)C3)c12` (configuration not stated) are 0.27 µM and 0.33 µM.
`Cn1cc(NC(=O)c2cn(Cc3ccc(Cl)cc3)c(=O)c3ccccc23)cn1` showed a dissociation constant Kd at Fascin [1] of 2.7 µM. The same compound registered an IC50 at Fascin [2] of 4.6 µM.
Compound `O=c1c2cnn(C3CCS(=O)(=O)C3)c2ncn1Cc1ccc(Cl)c(Cl)c1` (configuration not stated) came in with an IC50 against Fascin [2] of 67.6 µM.
As usually defined, the kinetic solubility is solubility judged after dilution from a stock solution rather than from solid. What is called logD is the decadic logarithm of the distribution of all forms, ionised or not, between an organic phase and buffer at a given pH. As usually defined, the Papp is the rate of passage across a membrane or cell layer, normalised by area and donor concentration. For `O=C(Nc1ccncc1)c1cn(Cc2ccc(Cl)c(Cl)c2)c(=O)c2cnn(C3CCNCC3)c12`, the Ratio in series [4] worked out at 37.8. The Kd on Fascin [5] worked out at 0.05 µM; at Fascin [1], 0.09 µM. Moreover, the IC50 against Cytochrome P450 2D6 is 1.6 µM; in series [6] it was above 25 µM; against Cytochrome P450 2C19, 22 µM; against Cytochrome P450 2C9 it was 5.9 µM; at Cytochrome P450 3A4, 7 µM; against Fascin [2], 0.24 µM. The CL in series [7] was determined as 6.4 µL/min; in [11], 11.8 µL/min. This compound also yielded a kinetic solubility in series [8] of 65 µM (≈ 32.3 µg/mL). The same compound yielded a logD in series [9] of 1.8. For the same compound, the apparent permeability (Papp) in series [10] worked out at 0.15 ×10⁻⁶ cm/s.
Consider `Cn1cc(NC(=O)c2cn(Cc3ccccc3)c(=O)c3ccccc23)cn1`, for which the dissociation constant (Kd) on Fascin [1] was 29.3 µM. The same compound gave an IC50 on Fascin [2] of 67.9 µM.
On the same counts, the results for `Cn1cc(NC(=O)c2cn(Cc3ccc(Cl)c(Cl)c3)c(=O)c3ccccc23)cn1` are 1.5 µM and 1.3 µM.
